Experimental data from patent US9018176B2, “Inducers of hematopoiesis and fetal globin production for treatment of cytopenias and hemoglobin disorders” (priority 2010, dated 2015).
Several values for one entry are separate records, joined by “and”; a condition that tells them apart may be missing. Equal values may be shown once. Read-outs that look alike come from different tables or passages of the source.

Columns and labels:
γ-globin mRNA [1] = experiment: γ-globin mRNA gene expression in K562 cells; assay type: cell-based; conditions: FIGS. 4A and 4B, K562 cells; Resveratrol 30 μM, desloratadine 50 μM, NSC 50 μM, Benserazine 5 μM
γ-globin [2] = experiment: Fetal globin (γ-globin mRNA, HbF) induction in phlebotomized anemic baboons; assay type: in vivo, baboons (Papio hamadryas anubis)
γ-globin mRNA [3] = experiment: γ-globin mRNA in cultured primary human erythroid progenitors (BFU-e), real-time PCR; assay type: cell-based; conditions: for fetal globin mRNA, Mean: vs untreated control cultures from the same subject
[4] = system: red blood cell production; experiment: Total hemoglobin and hematocrit in phlebotomized anemic baboons; assay type: in vivo, baboons (Papio hamadryas anubis); conditions: FIG. 12B; MS-275 3 mg/m^2 for 4 days and 2 weeks vs ST20 2 and 4 days; desloratadine 0.6 mg/kg for two days
Method: (§1) Studies to evaluate pharmacokinetic properties and γ-globin induction were performed in juvenile baboons (Papio hamadryas anubis). Briefly, animals were chronically phlebotomized on a daily basis to achieve stable anemia, maintaining a total hemoglobin level of 7.0 to 7.5 g/dl. Candidate compounds were administered intravenously or orally once daily in single doses for pharmacokinetic studies, or once daily in single doses, 4-5 days per week for 4-5 weeks, for pharmacodynamic studies. […] Levels of γ-globin mRNA expression and globin chain synthesis were assessed in baboons before and during treatment with test compounds. A washout period between administrations of different compounds in the same baboon was provided.
(§2) Chronically catheterized baboons were phlebotomized daily to create chronic anemia with total hemoglobin levels (Hb) between 7.0 to 7.5 g/dl which simulates the expanded erythropoiesis and anemia in sickle cell disease and beta thalassemia. Blood counts were drawn and total Hb (hemoglobin) and reticulocytes were analyzed on a hemavet analyzer. Fetal globin mRNA was analyzed by RT-PCR and proportions for f-cells were analyzed by flow cytometry. […] Desloratidine (0.6 mg/kg) was administered for 4 days following a washout period. Blood counts were obtained at least 3 days/week.
Baboon 1509 (weight 10.9 kg) was phlebotomized to induce anemia and marrow expansion, similar to the hemoglobin disorders.

red blood cells = experiment: Adult human subject with alpha thalassemia trait given desloratidine; assay type: in vivo; conditions: 5 mg/day once per day, within 4 weeks
Method: Desloratidine was administered to an adult human subject with alpha thalassemia trait at a standard allergy treatment dose of 5 mg/day total, once per day. […] This is an unexpected and rapid rise in red blood cell levels in a mildly anemic subject. Accordingly, the inventors have discovered that desloratidine can be used to increase red blood cells in a subject at a dose of […] in order to increase the red blood levels in a subject in need of treatment. In some embodiments, the subject who is administered desloratidine is selected to have a low red blood count, or is anaemic or has a cytopenia as disclosed herein.

γ-globin mRNA [5] = experiment: γ-globin mRNA in cultured primary human erythroid progenitors (BFU-e), real-time PCR; assay type: cell-based
Method: Erythroid progenitors were cultured from cord blood CD34+ cells. […] Each compound was tested in three different cultures. […] On day 14, RNA was extracted from cultured erythroid cells, and relative quantification PCR was performed. Briefly, cDNA was generated from equal amounts of total RNA extracted using The PerfectPure RNA Purification Kit (5 Prime Inc Gaithersburg, Md.). Real-time PCR was performed using an ABI 7500 Real-Time PCR system (Applied Biosystems, Foster City, Calif.). Levels of globin mRNA were calculated by the ΔΔCt method. […] GAPDH levels were used for standardization. Western blotting Nuclear extract of K562 cells and 14-day-old BFU-e were analyzed by electrophoresis using 5-24% gradient SDS-polyacrylamide mini-gels (BIORAD Laboratories. Hercules Calif.). Proteins in the gels were transferred to Immobilon-P membranes. Blots were then incubated with BCL11A polyclonal (Novus Biologicals, Littleton Co) or mouse monoclonal (Santa Cruz Biotechnology, Santa Cruz Calif.) antibodies, after washing blots were incubated with anti-rabbit IgG-horseradish peroxidase secondary antibody (ECL, Little Chalfont Buckinghamshire UK). BCL11A bands were detected on the X-ray film using Western Lightning Reagents (Perking Elmer Inc, Waltham, Mass.).

CB BFU-E cells = experiment: CB BFU-E cell proliferation (cells/colony); conditions: FIG. 8
Method: Fetal globin-inducing activity in human erythroid progenitors was assessed. Human erythroid progenitors were cultured from peripheral blood samples, exposed to the test compounds at varying concentrations and for varying durations and analyzed for globin chain mRNA ratios. Erythroid progenitors were cultured from cord blood CD34+ cells. Briefly, CD34+ cells in the human cord blood were separated using a Ficoll-paque density gradient. CD34+ cells were cultured in H4230 medium containing 2 mM L-glutamine, 1% Methylcellulose in Iscove's Medium, 30% Fetal Bovine Serum, 1% Bovine Serum Albumin and 10^-4 M β-mercaptoethanol. Methylcellulose H4230 medium was supplemented with EPO (0.5 U/ml) and IL-3 (20 ng/ml) to support BFU-e growth. Cells were cultured in […] mini-dishes and incubated in a humidified atmosphere containing 5% CO2, at 37° C. Different concentrations of the test compounds were added at the time the cultures were established. Each compound was tested in three different cultures. BFU-e colonies grown in mini-dishes were counted on day 14 and harvested for mRNA analysis.

γ-globin [6] = experiment: Fetal globin (γ-globin mRNA, HbF) induction in phlebotomized anemic baboons; assay type: in vivo, baboons (Papio hamadryas anubis); conditions: for increase of fetal hemoglobin (HbF) protein levels above levels produced by erythroid stress alone: Desloratidine 0.6 mg/kg orally
Method: as §1, §2
Baboons HL-25 and HD50 were phlebotomized daily to create anemia with erythroid expansion. When stably anemic, Desloratidine (0.6 mg/kg) was administered orally, fetal hemoglobin (HbF) protein levels were assayed.

[7] = system: γ-globin reporter cell line; experiment: Cytotoxicity counter screen run simultaneously with the HTS; assay type: cell-based, human; conditions: simultaneous counter screen of the HTS
γ-globin gene promoter = experiment: High throughput screen: LCR-HS2 γ-globin gene promoter EGFP reporter cell assay; assay type: cell-based, human; conditions: pilot screen plate, fold increase relative to NC (negative control)
Description: FIG. 1B is a schematic illustration showing an illustration of the method of the high throughput screening assay (HTS) with the cell construct comprising a locus control region (LCR) linked to the y-globin gene promoter and enhanced GFP (EGFP). A compound which activates γ-globin promoter will induce gene expression of EGFP which can be detected by a suitable detector.
A human cell-based assay which was previously used in low throughput assays, utilizing a 1.4-kilobase (kb) KpnI-BglII fragment of the HS2 of the locus control region (LCR) linked to the γ-globin gene promoter and the enhanced green fluorescent protein (EGFP) reporter gene, was adapted for high throughput screening and employed as the primary screen (FIG. 1A). Cytotoxic activity was assayed in a simultaneous counter screen. […] Several hits were immediately eliminated from further development as potential hemoglobinopathy therapeutics because of cytotoxicity (e.g., Idarubicin) or undesirable off-target effects, but nonetheless validated the HTS itself and were validated in secondary confirmatory assays as highly-potent HbF-inducers. […]

γ-globin [8] = conditions: in humans, about 3-fold less than in baboons; cited from earlier work
[9] = Desloratadine 3 uM, Cord Blood progenitors
[10] = Desloratadine 3 uM, Hemoglobin disorder progenitors

Clc1ccc2c(c1)CCc1cccnc1C2=C1CCNCC1 [Desloratadine, 8-Chloro-6,11-dihydro-11-(4-piperidinylidene)-5H-benzo[5,6]cyclohepta[1,2-b]pyridine]
% induction of γ-globin mRNA gene expression (γ-globin mRNA [1]): most significant % increase
Increase in γ-globin mRNA above baseline (γ-globin [2]; Baboon HD50, Desloratadine oral 0.55 mg/kg): 350%
Increase in γ-globin mRNA above baseline (γ-globin [2]; Baboon HD50, Desloratadine oral 0.55 mg/kg, listed as Desloratidine): 350%
Increase in γ-globin mRNA above baseline (γ-globin [2]; Baboon HL25, Desloratadine oral 0.55 mg/kg): 386%
Increase in γ-globin mRNA above baseline (γ-globin [2]; Baboon HL25, Desloratadine oral 0.55 mg/kg, listed as Desloratidine): 386%
responses (cultures with induced fetal globin mRNA) (γ-globin mRNA [3]; [9]): 4/4 responses
fetal globin mRNA, Mean (γ-globin mRNA [3]; [9]): 323 % of control
responses (cultures with induced fetal globin mRNA) (γ-globin mRNA [3]; [10]): 3/3 responses
fetal globin mRNA, single subjects (γ-globin mRNA [3]; Desloratadine 3 uM, Hemoglobin disorder progenitors (subjects)): 121 % of control and 123 % of control and 274.2 % of control
fetal globin mRNA, Mean (γ-globin mRNA [3]; [10]): 175 % of control
responses (cultures with induced fetal globin mRNA) (γ-globin mRNA [3]; Desloratadine 3 uM, Normal progenitors): 1 response
fetal globin mRNA, Mean (γ-globin mRNA [3]; Desloratadine 3 uM, Normal progenitors (ABM), 1 response): 1098 % of control
γ-globin mRNA induction (γ-globin mRNA [3]; cultured primary human erythroid progenitors, concentrations pharmacologically achievable in humans): up to 6 fold
blood total hemoglobin (Hb) levels compared with positive control ST20 (150 mg/kg) [4]: significantly more effective
Hemoglobin after treatment (red blood cells; increased from 10): 11.5 g/gl
hematocrit after treatment (red blood cells; increased from 30%): 35%
% induction of γ-globin mRNA gene expression (γ-globin mRNA [5]; FIG. 4C, HFU-E (burst-forming units-erythroid) cells, Resveratrol 30 μM, desloratadine 50 μM, NSC 50 μM, Benserazine 5 μM): most significant % increase
effect in increasing % of γ-globin mRNA expression (γ-globin mRNA [5]; FIG. 6, BFU-e cells, Desloratadine 3 μM, Benserazide 3 μM, NSC5397 0.6 μM): greatest effect
number of blood cells per colony (CB BFU-E cells): increase the number of blood cells per colony
increase of fetal hemoglobin (HbF) protein levels above levels produced by erythroid stress alone (γ-globin [6]; Baboon HD50): 170%
increase of fetal hemoglobin (HbF) protein levels above levels produced by erythroid stress alone (γ-globin [6]; Baboon HL25): 193%
fetal globin mRNA (γ-globin [6]; Benserazide 1 or 3 mg/kg in baboon 1509, MS-275 and desloratidine): induced
γ-globin mRNA expression in blood compared with positive control ST20 (150 mg/kg) (γ-globin [6]; FIG. 12A, MS-275 3 mg/m^2 for 4 days and 2 weeks, desloratadine 0.6 mg/kg for two days vs ST20 after 2 or 4 days): more effective
time of treatment to detected fetal globin induction and increased HbF (γ-globin [6]; desloratidine, same baboon as ST-20): ≤ 4 days

CC(=O)[C@]1(O)Cc2c(O)c3c(c(O)c2[C@@H](O[C@H]2C[C@H](N)[C@H](O)[C@H](C)O2)C1)C(=O)c1ccccc1C3=O [Idarubicin, idarubicin]
cytotoxicity (reason for elimination from further development) [7]: cytotoxicity
fold induction of the γ-globin promoter (γ-globin gene promoter): 8 fold

CCC(C)(C)C(=O)[O-].[Na+] [ST20, sodium 2,2-dimethylbutyrate]
dose required to increase HbF expression (γ-globin [8]): 20 to 50 mg/kg
Increase in γ-globin mRNA above baseline (γ-globin [6]; Baboon HD50, ST20 oral 150 mg/kg): 310%
time of treatment after which fetal globin (HbF) mRNA increased (γ-globin [6]; ST-20, same baboon as desloratidine): 2 weeks
dose required to increase HbF expression (γ-globin [6]; in baboons): 50 to 150 mg/kg
